Laboratory results as given in US12540120B2, “Herbicidal compounds” (SYNGENTA CROP PROTECTION AG, priority 2019, dated 2026).

Tests used:
Type in all cases: in vivo
[1] = system: Ipomoea hederacea (IPOHE); test: B2 Post-Emergence Efficacy—Test 2; details: post-emergence application, 250 g/ha, evaluated after 13 days (Test 2)
Method: (§1) B2 Post-Emergence Efficacy—Test 2 Seeds of a variety of test species are sown in standard soil in pots:—Solanum nigrum (SOLNI), Amaranthus retoflexus (AMARE), Setaria faberi (SETFA), Echinochloa crus-galli (ECHCG), Ipomoea hederacea (IPOHE), Lolium perenne (LOLPE). After 8 days cultivation (post-emergence) under controlled conditions in a glasshouse (at 24/16° C., day/night; 14 hours light; 65% humidity), the plants are sprayed with an aqueous spray solution derived from the formulation of the technical active ingredient in acetone/water (50:50) solution containing 0.5% Tween 20 (polyoxyethylene sorbitan monolaurate, CAS RN 9005-64-5). Compounds are applied at 250 g/ha. The test plants are then grown in a glasshouse under controlled conditions in a glasshouse (at 24/16° C., day/night; 14 hours light; 65% humidity) and watered twice daily. After 13 days, the test is evaluated for the percentage damage caused to the plant. The biological activities are assessed on a five point scale (5=80-100%; 4=60-79%; 3=40-59%; 2=20-39%; 1=0-19%). A blank value in the table is indicative that the compound was not tested on that species.

Lolium perenne (LOLPE) [2] = test: B2 Post-Emergence Efficacy—Test 2; details: post-emergence application, 250 g/ha, evaluated after 13 days (Test 2)
Method: as §1

[3] = system: Amaranthus retoflexus (AMARE); test: B2 Post-Emergence Efficacy—Test 2; details: post-emergence application, 250 g/ha, evaluated after 13 days (Test 2)
Method: as §1

[4] = system: Echinochloa crus-galli (ECHCG); test: B2 Post-Emergence Efficacy—Test 2; details: post-emergence application, 250 g/ha, evaluated after 13 days (Test 2)
Method: as §1

Solanum nigrum (SOLNI) [5] = test: B2 Post-Emergence Efficacy—Test 2; details: post-emergence application, 250 g/ha, evaluated after 13 days (Test 2)
Method: as §1

Setaria faberi (SETFA) [6] = test: B2 Post-Emergence Efficacy—Test 2; details: post-emergence application, 250 g/ha, evaluated after 13 days (Test 2)
Method: as §1

[7] = system: Ipomoea hederacea (IPOHE); test: B5 Pre-Emergence Efficacy—Test 2; parameters: key: 5-point scale: 5=80-100%, 4=60-79%, 3=40-59%, 2=20-39%, 1=0-19% damage; details: 250 g/ha, evaluated after 13 days
Method: (§2) B5 Pre-Emergence Efficacy—Test 2 Seeds of a variety of test species were sown in standard soil in pots: Solanum nigrum (SOLNI), Amaranthus retoflexus (AMARE), Setaria faberi (SETFA), Echinochloa crus-galli (ECHCG), Ipomoea hederacea (IPOHE), Lolium perenne (LOLPE). After cultivation for one day (pre-emergence) under controlled conditions in a glasshouse (at 24/16° C., day/night; 14 hours light; 65% humidity), the plants were sprayed with an aqueous spray solution derived from the formulation of the technical active ingredient in acetone/water (50:50) solution containing 0.5% Tween 20 (polyoxyethelyene sorbitan monolaurate, CAS RN 9005-64-5). Compounds are applied at 250 g/ha. The test plants were then grown in a glasshouse under controlled conditions (at 24/16° C., day/night; 14 hours light; 65% humidity) and watered twice daily. After 13 days, the test is evaluated for the percentage damage caused to the plant. The biological activities are assessed on a five point scale (5=80-100%; 4=60-79%; 3=40-59%; 2=20-39%; 1=0-19%). A blank value in the table is indicative that the compound was not tested on that species.

Lolium perenne (LOLPE) [8] = test: B5 Pre-Emergence Efficacy—Test 2; parameters: key: 5-point scale: 5=80-100%, 4=60-79%, 3=40-59%, 2=20-39%, 1=0-19% damage; details: 250 g/ha, evaluated after 13 days
Method: as §2

[9] = system: Echinochloa crus-galli (ECHCG); test: B5 Pre-Emergence Efficacy—Test 2; parameters: key: 5-point scale: 5=80-100%, 4=60-79%, 3=40-59%, 2=20-39%, 1=0-19% damage; details: 250 g/ha, evaluated after 13 days
Method: as §2

Setaria faberi (SETFA) [10] = test: B5 Pre-Emergence Efficacy—Test 2; parameters: key: 5-point scale: 5=80-100%, 4=60-79%, 3=40-59%, 2=20-39%, 1=0-19% damage; details: 250 g/ha, evaluated after 13 days
Method: as §2

[11] = system: Amaranthus retoflexus (AMARE); test: B5 Pre-Emergence Efficacy—Test 2; details: 250 g/ha, evaluated after 13 days
Method: as §2

Solanum nigrum (SOLNI) [12] = test: B5 Pre-Emergence Efficacy—Test 2; details: 250 g/ha, evaluated after 13 days
Method: as §2

| SMILES | percentage damage caused to the plant, five point scale, IPOHE [1] | percentage damage caused to the plant, five point scale, LOLPE (Lolium perenne (LOLPE) [2]) | percentage damage caused to the plant, five point scale, AMARE [3] | percentage damage caused to the plant, five point scale, ECHCG [4] | percentage damage caused to the plant, five point scale, SOLNI (Solanum nigrum (SOLNI) [5]) | percentage damage caused to the plant, five point scale, SETFA (Setaria faberi (SETFA) [6]) | Control of weed species after pre-emergence application, IPOHE (percentage damage, five point scale) [7] | Control of weed species after pre-emergence application, LOLPE (percentage damage, five point scale) (Lolium perenne (LOLPE) [8]) | Control of weed species after pre-emergence application, ECHCG (percentage damage, five point scale) [9] | Control of weed species after pre-emergence application, SETFA (percentage damage, five point scale) (Setaria faberi (SETFA) [10]) | Control of weed species after pre-emergence application, AMARE (percentage damage, five point scale) [11] | Control of weed species after pre-emergence application, SOLNI (percentage damage, five point scale) (Solanum nigrum (SOLNI) [12]) |
| --- | --- | --- | --- | --- | --- | --- | --- | --- | --- | --- | --- | --- |
| Cc1nc(-c2ccc(CCc3c(Cl)ccc(F)c3-c3c(O)c(C)nn(C)c3=O)cc2)cs1 [Compound A-1.383] | 5 (5=80-100%) | 5 (5=80-100%) | 5 (5=80-100%) | 5 (5=80-100%) | 5 (5=80-100%) | 5 (5=80-100%) | 5 (5=80-100%) | 3 (3=40-59%) | 4 (4=60-79%) | 4 (4=60-79%) | 5 (5=80-100%) | 5 (5=80-100%) |
| Cc1nn(C)c(=O)c(-c2c(F)ccc(Cl)c2/C=C/c2ccc(O)cc2)c1O [Compound A-2.037] | 2 (2=20-39%) | 1 (1=0-19%) | 1 (1=0-19%) | 2 (2=20-39%) | 2 (2=20-39%) | 1 (1=0-19%) | 1 (1=0-19%) | 1 (1=0-19%) | 0 | 1 (1=0-19%) | 0 | 0 |
| Cc1nn(C)c(=O)c(-c2c(F)ccc(Cl)c2CCc2ccc(C(=O)O)cc2)c1O [Compound A-1.040] | 0 | 0 | 3 (3=40-59%) | 0 | 3 (3=40-59%) | 0 | 0 | 0 | 0 | 0 | 0 | 0 |
| Cc1nn(C)c(=O)c(-c2c(F)ccc(Cl)c2/C=C/c2ccc(C3CC3)cc2)c1OC(=O)C(C)C [Compound A-4.038, [5-[3-chloro-2-[(E)-2-(4-cyclopropylphenyl)vinyl]-6-fluoro-phenyl]-1,3-dimethyl-6-oxo-pyridazin-4-yl] 2-methylpropanoate] | 2 (2=20-39%) | 1 (1=0-19%) | 1 (1=0-19%) | 1 (1=0-19%) | 5 (5=80-100%) | 0 | 0 | 0 | 0 | 0 | 2 (2=20-39%) | 1 (1=0-19%) |
| Cc1nn(C)c(=O)c(-c2c(F)ccc(Cl)c2CCc2ccc(OC(C)(C)C)cc2)c1OC(=O)C(C)C [Compound A-3.035] | 5 (5=80-100%) | 5 (5=80-100%) | 5 (5=80-100%) | 4 (4=60-79%) | 5 (5=80-100%) | 5 (5=80-100%) | 5 (5=80-100%) | 5 (5=80-100%) | 4 (4=60-79%) | 5 (5=80-100%) | 4 (4=60-79%) | 5 (5=80-100%) |
| Cc1nn(C)c(=O)c(-c2c(F)ccc(Cl)c2/C=C/c2ccc(C#N)cc2)c1OC(=O)C(C)C [Compound A-4.036, [5-[3-Chloro-2-[(E)-2-(4-cyanophenyl)vinyl]-6-fluoro-phenyl]-1,3-dimethyl-6-oxo-pyridazin-4-yl] 2-methylpropanoate] | 4 (4=60-79%) | 3 (3=40-59%) | 2 (2=20-39%) | 3 (3=40-59%) | 5 (5=80-100%) | 1 (1=0-19%) | 3 (3=40-59%) | 1 (1=0-19%) | 1 (1=0-19%) | 0 | 2 (2=20-39%) | 5 (5=80-100%) |
| Cc1nn(C)c(=O)c(-c2c(F)ccc(Cl)c2CCc2ccc(-n3cncn3)cc2)c1O [Compound A-1.385, 4-[3-chloro-6-fluoro-2-[2-[4-(1,2,4-triazol-1-yl)phenyl]ethyl]phenyl]-5-hydroxy-2,6-dimethyl-pyridazin-3-one] | 5 (5=80-100%) | 5 (5=80-100%) | 5 (5=80-100%) | 5 (5=80-100%) | 5 (5=80-100%) | 5 (5=80-100%) | 5 (5=80-100%) | 5 (5=80-100%) | 5 (5=80-100%) | 5 (5=80-100%) | 5 (5=80-100%) | 5 (5=80-100%) |
